Results published in patent US20260240683A1, “MOLECULAR LINKERS” (CWAN TECHNOLOGIES PTY LTD, priority 2023, published 2026).

Tests used:
[1] = Diffusion into thermally gelled 12% gelatin gel disc (A452 read-out), model corneal stroma; type: physicochemical
Protocol: A 12% Gelatin (Sigma G1890) Type A, 300 Bloom solution was prepared in PBS (pH7.4) by melting at 50° C. 60 μL was added to an 8.5 mm (diameter)×1 mm (deep) round Teflon mould. The Gelatin was allowed to set thermally for 10 min at 18.5° C. At 10 min, 60 μL 0.5 mM Ru(bpy)3 (0.5 mM solution in PBS) is added to the top of the thermally gelled 12% gelatin disc. The gelatin disc was covered with foil during diffusion time. Excess solution was blotted from the top of the gel using a Kimwipe. Remove gelled disc using spatula, add to 940 μL of PBS @55° C. Melt gel (30 sec)—add solution to cuvette, read A452.
If diffusion is expressed as a percentage of the total disc volume equilibrated with the applied 0.5 mM Ru(bpy)3 solution, then, assuming total mixing of the applied 60 μL solution with the 60 μL gelatin disc, 100% diffusion would represent an A452 of 0.205 [0.221−0.016=gelatin−PBS blank)]. So, diffusion to 30% of the hydrogel depth/thickness (in this case representing ca. 300 μm) would be attained in about 2.3 min. This is the desired depth of penetration of a crosslinking agent in the human cornea (by comparison with Riboflavin-based CXL methods, which require 30 minutes of diffusion).

[2] = Riboflavin solubility at 0.1% in PBS; type: physicochemical
[3] = Ru(bpy)3 diffusion through debrided bovine cadaver corneal stroma; type: in vitro ADME; conditions: PBS solution containing 0.5 mM Ru(bpy)3; 800 μm thick bovine cadaver corneal stroma; within 6 minutes
Protocol: 10 fresh bull eyes were obtained from an abattoir (<10 hours old, stored at 4° C.). Using a digital caliper, the thickness of the corneas was determined to be within the range of 740 μm to 820 μm. The epithelium of the eyes was debrided with an 8 mm biopsy punch and scraped-off with a scalpel blade.
[…] Excess Ru(bpy)3 solution was removed by blotting using a fresh Kimwipe tissue.
Corneas were frozen on the surface of an aluminium block at −20° C. for 2 minutes (FIG. 7B). Transverse (bisecting) cross-sections of cornea were prepared by cutting a 1 mm thick section using a razor blade. The corneal cross-section was mounted on a glass slide to allow visualization of the cross-sectional area of the corneal stroma (FIG. 7C). Ru(bpy)3 was visualized through a red filter with illumination with a 450 nm LED light (FIG. 7).
The rate of diffusion of Ru(bpy)3 through both fresh bovine cadaver corneal stroma and through a thermally gelled 12% gelatin hydrogel (as a model corneal stromal matrix), was studied.

[4] = Diffusion of Ru(bpy)3+SPS and photochemical crosslinking of 1 mm 12% gelatin hydrogel (weight after 65° C. melt); type: physicochemical
Protocol: Method: 12% Gelatin (Sigma G1890) Type A 300 Bloom in PBS (pH 7.4), was melted at 50° C. and 60 μL added to an 8.5 mm (diameter) disc×1 mm (deep) Teflon mould. The gelatin was allowed to set thermally for 10 min at 18.5° C. 60 μL of Ru(bpy)3/SPS solution (either a 0.5 mM Ru(bpy)3+50 mM SPS; a 1.0 mM Ru(bpy)3+50 mM SPS or a 2.0 mM Ru(bpy)3+50 mM SPS) was added and allowed to diffuse into the gel disc for varying times (0, 2, 4, 6, 8, 10, 14 min). Excess liquid was blotted from the top surface of the mould. At the end point of the diffusion period, the thermally set gelatin hydrogel was illuminated using a 3M ESPE blue LED lamp (1,200 mW/cm^2) for 5 sec at 1 cm distance from the light guide tip. The crosslinked gelatin hydrogel was weighed on a microbalance before being placed into a 65° C. water bath for 30 sec. Excess liquid was removed from the crosslinked hydrogel and it was again weighed to measure residual crosslinked gelatin hydrogel. A plot was prepared showing % crosslinked gelatin vs diffusion time (zero to 14 min).
Aim: To determine the time required for a solution containing Ru(bpy)3+SPS to diffuse through a 1 mm thick sheet of thermally-gelled gelatin and then to form covalent crosslinks between gelatin molecules, thus rendering the hydrogel resistant to subsequent melting at high temperature. […]

[5] = Photochemical crosslinking of corneal stroma using 3D template mould; parameters: species or system bovine; conditions: 300 μL, 10 min diffusion, 20 sec 450 nm blue LED at 1 cm; 1 mM Ru(bpy)3 with or without 50 mM SPS
Protocol: The entire epithelium was debrided from a cornea. 300 μL of 1 mM Ru(bpy)3+50 mM SPS was applied to the anterior corneal surface for a diffusion time of 10 minutes (FIG. 9A). The cornea was wrapped over a metal piping nozzle, acting as a mould, and irradiated for 20 seconds using 450 nm blue LED dental lamp at a distance of 1 cm from the light guide tip (FIG. 9B).
A cornea was subject to the crosslinking protocol described in Example 3A, except that sodium persulphate (SPS) was omitted. […] In its absence, singlet oxygen radical production by short (20 sec) blue light irradiation of Ru(bpy)3 in aqueous solution is insufficient to cause any measurable covalent crosslinking of endogenous stromal proteins. In contrast, in its presence, crosslinking of endogenous corneal proteins and “molecular linkers” occurs rapidly and quantitatively.

Row | rate of diffusion through 12% gelatin hydrogel compared with 0.5 mM Ru(bpy)3 solution ([1]; Riboflavin 0.1% (2.6 mM)) | depth of free diffusion through corneal stroma [3] | time to diffuse to 30% of the hydrogel depth/thickness (ca. 300 μm) ([1]; 0.5 mM Ru(bpy)3 in PBS, 60 μL on 1 mm deep 12% gelatin disc) | time to diffuse through the entire 1.0 mm thickness of 12% (w/v) gelatin hydrogel ([4]; Ru(bpy)3+50 mM SPS solutions (0.5, 1.0, 2.0 mM)) | Compound | solubility at 0.1% (2.6 mM) ([2]; PBS (pH 7.4)) | solubility at 0.1% (2.6 mM) ([2]; PBS with NaOH added, pH ca. 8.5, RT) | covalent crosslinking of gelatin hydrogel after the diffusion step ([4]; Ru(bpy)3+SPS, 5 second illumination with 450 nm blue LED lamp) | formation of templated 3D structure of cornea after photo-crosslinking on mould [5]
1 | slightly slower | – | – | – | Cc1cc2nc3c(=O)[nH]c(=O)nc-3n(C[C@H](O)[C@H](O)[C@H](O)CO)c2cc1C [Riboflavin, riboflavin] | =2.6 mM in PBS (pH 7.4) - not fully soluble in PBS* | *Added 1 μL of 10N NaOH to 2 ml of 0.1% solution in PBS - took pH to ca. 8.5 (by pH paper test). Riboflavin solution was now fully soluble at 0.1% (2.6 mM) at RT. | – | –
2 | – | 400 μm | about 2.3 min | ≤ 6 min | [Cl-].[Cl-].[Ru+2].c1ccc(-c2ccccn2)nc1.c1ccc(-c2ccccn2)nc1.c1ccc(-c2ccccn2)nc1 [Ru(bpy)3, ruthenium (tris)bipyridyl chloride] | – | – | entire gelatin hydrogel can be covalently crosslinked | no mould template structure was formed
